Measured values taken from US11800874B2, “Composition comprising a selective herbicide and an algal extract, use of an algal extract for detoxifying plants subjected to treatment with a selective herbicide” (LABORATOIRES GOËMAR, priority 2014, dated 2023).
Where two headings read alike, the source gives them in different places.

Tests used:
[1] = test system: Glyphosate-resistant soybean; test: Phytotoxicity of spray treatments on glyphosate-resistant soybean (Example 1); details: 4 weeks after treatment
Source text: Glyphosate-resistant soybean was planted in a greenhouse and left to grow until the 5-leaf stage. It was separated into different batches, which were each treated by spraying with the following different compositions:
(§1) A control batch was also cultivated, onto which water was sprayed.

Conventional soybean [2] = details: in vivo
Source text: (§2) Conventional soybean (that is to say not genetically modified and therefore not resistant to glyphosate) was planted in a greenhouse and left to grow until the 5-leaf stage.
as §1

Conventional soybean [3] = details: in vivo; remark: listed apart in the source
Source text: as §2, §1

Manganese-EDTA complex [Mn]
0%: Necrosed surface area ([1]; sprayed composition 0.25% w/v) | Plants having a necrosed leaf ([1]; sprayed composition 0.25% w/v) | Necrosed surface area ([1]; sprayed composition 0.5% w/v) | Plants having a necrosed leaf ([1]; sprayed composition 0.5% w/v) | Necrosed surface area (Conventional soybean [2]) | Plants having a necrosed leaf (Conventional soybean [2]) | Necrosed surface area (Conventional soybean [3]) | Plants having a necrosed leaf (Conventional soybean [3])
